Results on one compound are retold here after patent publication US5625032A, “Selective amylin antagonist peptides and uses therefor” (Amylin Pharmaceuticals, Inc., priority 1993, dated 1997).

Assay [1] deals with T1, CGRP receptors (Homo sapiens, UniProt O60894+Q16602).
T1 construct: SK-N-MC cells were homogenized in 50 mM HEPES buffer, pH 7.4, and membranes were collected by centrifugation; endogenous in cells; host or cells: human SK-N-MC neuroblastoma cells (membranes)
Kind of assay: CGRP receptor binding assay (125I human αCGRP, SK-N-MC cell membranes). The text has this:
(§1) As more fully described in Example 9, these assays, like the amylin receptor binding assay, are competition assays which measure the ability of compounds to bind specifically to certain membrane-bound receptors. Preferred sources of membrane preparations used in these assays are human SK-N-MC neuroblastoma cells and human T47D carcinoma cells to measure binding to CGRP and calcitonin receptors, respectively. Compounds being assayed compete for binding to the CGRP receptor preparations with ^125 I human αCGRP and to the calcitonin receptor preparations with ^125 I salmon calcitonin. Competition curves are analyzed as described for amylin receptor binding assays. The affinity of a compound for the amylin receptor relative to the affinity of the compound for the CGRP and calcitonin receptors determines the selectivity of the compound.
(§2) The selectivity of antagonist peptides for the amylin receptor relative to the CGRP and calcitonin receptors was determined by using two in vitro radioligand binding assays and comparing the results obtained to those acquired from the amylin receptor binding assay described in Example 7.
To measure the affinity of the peptides for CGRP receptors, human SK-N-MC neuroblastoma cells were used. […] Van Valen, Piechot & Jurgens, Neuroscience Letters 119:195-198 (1990). SK-N-MC cells were homogenized in 50 mM HEPES buffer, pH 7.4, and membranes were collected by centrifugation for 15 min at 48,000×g. Membranes were suspended at 0.1 to 0.2 mg protein/0.2 ml assay and were incubated in 50 mM HEPES, pH 7.4 containing BSA, bacitracin, and 2 mM MgCl2 with 20 pM ^125 I human αCGRP (labeled at ^10 his, 2000 Ci/mmol) and unlabeled peptide. Additional methods were similar to those described for amylin receptor binding assays in Example 2.

For assay [2], the system named is calcitonin receptors. Kind of assay: Calcitonin receptor binding assay (125I salmon calcitonin, T47D cell membranes). The arrangement: species or system human. The settings on record: ratio of calcitonin receptor IC50 to amylin receptor IC50.
Text: as §1, §2
(§3) To determine the affinity of the antagonist peptides for calcitonin receptors, human T47D carcinoma cells were used. […] Findlay et al., Cancer Research 40:4764-4767 (1980). Membranes were prepared from confluent cultures of T47D cells as described for SK-N-MC cells. Membranes were incubated with ^125 I salmon calcitonin (labeled at ^22 tyr, 2000 Ci/mmol) at a concentration of 30 pM for 60 minutes at ambient temperature. Additional methods were similar to those described for amylin receptor binding assays in Example 2. The IC50 of AAP40 (SEQ ID NO:40) for ^125 I salmon calcitonin binding to human T47D cell membranes was 50 nM.

Assay [3] concerns the target T2, calcitonin receptors (Homo sapiens, UniProt P30988).
T2 construct: Membranes were prepared from confluent cultures of T47D cells as described for SK-N-MC cells; endogenous in cells; host or cells: human T47D carcinoma cells (membranes)
T2 sequence (P30988 25-474): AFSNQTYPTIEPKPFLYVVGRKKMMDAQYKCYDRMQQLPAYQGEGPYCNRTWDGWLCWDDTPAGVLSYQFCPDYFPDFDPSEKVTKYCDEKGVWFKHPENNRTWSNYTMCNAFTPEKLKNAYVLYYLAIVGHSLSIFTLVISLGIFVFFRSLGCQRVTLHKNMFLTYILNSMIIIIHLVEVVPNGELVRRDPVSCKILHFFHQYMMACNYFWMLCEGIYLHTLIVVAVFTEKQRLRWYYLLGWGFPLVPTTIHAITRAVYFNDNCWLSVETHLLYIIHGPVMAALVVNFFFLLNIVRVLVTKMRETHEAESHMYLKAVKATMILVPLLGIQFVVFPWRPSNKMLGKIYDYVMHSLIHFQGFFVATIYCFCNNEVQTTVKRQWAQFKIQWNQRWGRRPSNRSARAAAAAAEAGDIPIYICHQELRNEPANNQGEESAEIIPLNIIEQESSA
The description is as above. The settings on record: 30 pM 125I salmon calcitonin, 60 minutes, ambient temperature.
Text: as §1, §2, §3

Molecules are shown by their SMILES. Peptide text beside a SMILES is read from it.

T1 sequence (Q16602 23-461): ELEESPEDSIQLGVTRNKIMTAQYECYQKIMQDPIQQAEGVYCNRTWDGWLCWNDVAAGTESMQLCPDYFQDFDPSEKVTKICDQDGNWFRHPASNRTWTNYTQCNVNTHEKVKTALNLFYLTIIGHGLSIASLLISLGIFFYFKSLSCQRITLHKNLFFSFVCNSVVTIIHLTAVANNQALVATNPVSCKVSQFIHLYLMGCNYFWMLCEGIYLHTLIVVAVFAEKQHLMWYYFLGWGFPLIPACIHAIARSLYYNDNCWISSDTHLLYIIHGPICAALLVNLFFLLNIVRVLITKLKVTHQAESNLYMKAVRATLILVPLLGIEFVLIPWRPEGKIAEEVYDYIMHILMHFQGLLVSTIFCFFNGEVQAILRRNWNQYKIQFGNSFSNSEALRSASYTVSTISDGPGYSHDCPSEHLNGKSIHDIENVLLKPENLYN
T1 sequence (O60894 27-148): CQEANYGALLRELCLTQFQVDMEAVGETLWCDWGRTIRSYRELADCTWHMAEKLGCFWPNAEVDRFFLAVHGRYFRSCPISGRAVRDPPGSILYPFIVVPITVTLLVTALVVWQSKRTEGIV

As usually defined, the IC50 is the concentration that inhibits the measured activity by half. Turning to `CC(=O)N[C@@H](C)C(=O)N[C@H](C(=O)N[C@@H](CCC(N)=O)C(=O)N[C@@H](CCCNC(=N)N)C(=O)N[C@@H](CC(C)C)C(=O)N[C@@H](C)C(=O)N[C@@H](CC(N)=O)C(=O)N[C@@H](CCC(=O)O)C(=O)N[C@@H](CC(C)C)C(=O)N[C@H](C(=O)N[C@@H](CCCNC(=N)N)C(=O)N[C@@H](CC(C)C)C(=O)N[C@@H](CCC(N)=O)C(=O)N[C@H](C(=O)N[C@@H](Cc1ccc(O)cc1)C(=O)N1CCC[C@H]1C(=O)N[C@@H](CCCNC(=N)N)C(=O)N[C@H](C(=O)N[C@@H](CC(N)=O)C(=O)N[C@H](C(=O)NCC(=O)N[C@@H](CO)C(=O)N[C@@H](CC(N)=O)C(=O)N[C@H](C(=O)N[C@@H](Cc1ccc(O)cc1)C(N)=O)[C@@H](C)O)C(C)C)[C@@H](C)O)[C@@H](C)O)C(C)C)[C@@H](C)O` [AAP40] (Ac-ATQRLANELVRLQTYPRTNVGSNTY-NH2), the IC50 in assay [1] (20 pM 125I human αCGRP) was 33 nM; in assay [3] it was 50 nM. For the same compound, in assay [1] (ratio of CGRP receptor IC50 to amylin receptor IC50), the “selectivity for amylin receptors than CGRP receptors” value was 66 fold. Further, the “selectivity for amylin receptors than calcitonin receptors” value in assay [2] is 100 fold.
